Experimental data: patent US4323517A, “Methoxy and methylsulfinylthiolesters” (Troponwerke GmbH & Co. KG, priority 1977, dated 1982)
“Also recorded” adds a separate entry of the source. Like-named read-outs stand apart in the source and are kept apart here.

Tests used:
[1] = test system: paw oedemas, caused by the administration of kaolin; assay: kaolin paw oedema, antiphlogistic action in rats; type: in vivo
Source text: The anti-inflammatory action was detected in paw oedemas, caused by the administration of kaolin, in rats.
In addition to the effects described for compound A, it could also be shown that the other derivatives (see Table 2) likewise have a powerful anti-inflammatory action. The minimum doses which still cause a clearly detectable effect on the paw oedema after the administration of kaolin are listed in Table 2.
Rats, kaolin oedema, intramuscularly, n = 10/dose group

[2] = test system: kaolin oedema; assay: comparison of the therapeutic range
[3] = comparison of the therapeutic range; conditions: rat, in vivo
[4] = test system: formalin oedema; assay: formalin oedema; type: in vivo; conditions: im; intramuscularly
Source text: (§1) Furthermore, A also has an action on other inflammation models. The ED50 values which follow are found (mg/kg; intramuscularly): formalin oedema 5.4, albumin oedema 6.3, yeast oedema 27.4, concanavalin oedema 3.4 and trypsin oedema 2.0.

[5] = stomach ulcer (ulcerogenic action) in rats; conditions: rat, in vivo
[6] = test system: trypsin oedema; assay: trypsin oedema; type: in vivo; conditions: im; intramuscularly
Source text: as §1

[7] = test system: yeast oedema; assay: yeast oedema; type: in vivo; conditions: im; intramuscularly
Source text: as §1

[8] = test system: concanavalin oedema; assay: concanavalin oedema; type: in vivo; conditions: im; intramuscularly
Source text: as §1

[9] = test system: rats; conditions: intramuscular
[10] = test system: albumin oedema; assay: albumin oedema; type: in vivo; conditions: im; intramuscularly
Source text: as §1

[11] = in vivo; conditions: rat
[12] = test system: paw oedemas, caused by the administration of kaolin; assay: kaolin paw oedema, antiphlogistic action in rats; type: in vivo; conditions: Rattus norvegicus, read-out: Kaolin oedema ED50
[13] = Rattus norvegicus, im, rats, kaolin oedema, intramuscularly, n = 10/dose group, read-out: Inhibition in % of the controls
[14] = Rattus norvegicus, im, rats, intramuscularly, n = 10/dose group, read-out: ED50 (kaolin oedema)
[15] = po, Therapeutic range LD50 / ED50 kaolin oedema, rats

CC(C)CSC(=O)CCS(=O)(=O)CC(C)C [(CH3)2 CHCH2 SO2 CH2 CH2 COSCH2 CH(CH3)2, S-Isobutyl 3-isobutylsulphonylpropionothioate]
inhibition in vivo at 12.5 mg/kg [1, 13]: 42%

CC(C)SCCC(=O)SC(C)C [(CH3)2 CHSCH2 CH2 COSCH(CH3)2, S-Isopropyl 3-isopropylthiopropionothioate]
inhibition in vivo at 25 mg/kg [1, 13]: 63.2%

CC(C)SC(=O)CC[S+]([O-])C(C)C (centres unmarked) [(CH3)2 CHSOCH2 CH2 COSCH(CH3)2, S-Isopropyl 3-isopropylsulphinylpropionothioate]
inhibition in vivo at 12.5 mg/kg [1, 13]: 22.7%

CC(C)(C)SCCC(=O)SC(C)(C)C [(CH3)3 CSCH2 CH2 COSC(CH3)3, S-tert.-butyl 3-tert.-butylthiopropionothioate]
inhibition in vivo at 12.5 mg/kg [1, 13]: 23.3%

CSCCC(=O)SC [A, S-methyl 3-methylthiopropionothioate]
therapeutic range, in words ([2]; rat, in vivo): wide therapeutic range; also recorded: unexpected favourable therapeutic range
selectivity ratio [3]: 52.9
selectivity ratio ([3]; Therapeutic range LD50 / ED50 kaolin oedema, rats, intramuscular): 946
ED50 [4]: 5.4 mg/kg
TD50 ([5]; im): 256 µmol/kg
ED50 [6]: 2 mg/kg
ED50 [7]: 27.4 mg/kg
ED50 [8]: 3.4 mg/kg
ED50 ([1]; Rattus norvegicus, im, rats, intramuscular, read-out: Kaolin oedema ED50): 4.85 µmol/kg
antiphlogistic (anti-inflammatory) action, in words ([1]; rat, in vivo): very pronounced antiphlogistic action
LD50 [9]: 4,587 μmols/kg
ED50 [10]: 6.3 mg/kg
LD50 ([11]; im): 4590 µmol/kg

CCSCCC(=O)SCC [C2 H5 SCH2 CH2 COSC2 H5, S-Ethyl 3-ethylthiopropionothioate]
ED50 [1, 14]: 3.75 mg/kg
inhibition in vivo at 2.5 mg/kg ([1]; Rattus norvegicus, im, rats, kaolin oedema, intramuscularly, dose 2.50 mg/kg, n = 10/dose group, read-out: Inhibition in % of the controls): 58.2%

CCCSCCC(=O)SCCC [C3 H7 SCH2 CH2 COSC3 H7, S-Propyl 3-propylthiopropionothioate]
inhibition in vivo at 25 mg/kg [1, 13]: 68.5%

CCCSC(=O)CC[S+]([O-])CCC (centres unmarked) [C3 H7 SOCH2 CH2 COSC3 H7, S-Propyl 3-propylsulphinylpropionothioate]
inhibition in vivo at 100 mg/kg [1, 13]: 73%

CCCCSCCC(=O)SCCCC [C4 H9 SCH2 CH2 COSC4 H9, S-Butyl 3-butylthiopropionothioate]
inhibition in vivo at 50 mg/kg [1, 13]: 77.2%

CCCCSC(=O)CC[S+]([O-])CCCC (centres unmarked) [C4 H9 SOCH2 CH2 COSC4 H9, S-Butyl 3-butylsulphinylpropionothioate]
inhibition in vivo at 100 mg/kg [1, 13]: 73%

C=C(C)C(=O)SC [CH2 =C(CH3)COSCH3, S-methyl methacrylthioate]
inhibition in vivo at 5 mg/kg ([1]; Rattus norvegicus, im, rats, kaolin oedema, intramuscularly, dose 5.00 mg/kg, n = 10/dose group, read-out: Inhibition in % of the controls): 21.8%

C=CC(=O)SCC [CH2 =CHCOSC2 H5, S-ethyl acrylthioate]
ED50 [1, 14]: 1.5 mg/kg
inhibition in vivo at 0.32 mg/kg ([1]; Rattus norvegicus, im, rats, kaolin oedema, intramuscularly, dose 0.32 mg/kg, n = 10/dose group, read-out: Inhibition in % of the controls): 18.5%

CC=CC(=O)SC [CH3 CH=CHCOSCH3, S-methyl crotonylthioate]
inhibition in vivo at 12.5 mg/kg [1, 13]: 16%

CCOC(=O)CCSC [CH3 SCH2 CH2 COOC2 H5, Ethyl 3-methylthiopropionate]
inhibition in vivo at 25 mg/kg [1, 13]: 16%

CSCC(C)C(=O)SC (centres unmarked) [CH3 SCH2 CH(CH3)COSCH3, S-methyl 3-methylthio-2-propylcarbonylthioate]
ED50 [1, 14]: 4.5 mg/kg
inhibition in vivo at 0.65 mg/kg ([1]; Rattus norvegicus, im, rats, kaolin oedema, intramuscularly, dose 0.65 mg/kg, n = 10/dose group, read-out: Inhibition in % of the controls): 16.6%

CSC(=O)CC[S+](C)[O-] (centres unmarked) [CH3 SOCH2 CH2 COSCH3, S-Methyl 3-methylsulphinylpropionothioate]
ED50 [1, 14]: 1.8 mg/kg
inhibition in vivo at 3.12 mg/kg ([1]; Rattus norvegicus, im, rats, kaolin oedema, intramuscularly, dose 3.12 mg/kg, n = 10/dose group, read-out: Inhibition in % of the controls): 10.2%

O=C(O)c1ccccc1Nc1cccc(C(F)(F)F)c1 [Flufenamic acid]
ED50 ([12]; rats, oral): 36.2 µmol/kg
Therapeutic range ED50 ulcer / ED50 kaolin oedema ([2]; rats, oral): 1.52
selectivity ratio [3, 15]: 56.3
TD50 ([5]; po): 55.1 µmol/kg
LD50 ([11]; po): 2040 µmol/kg

O=C(O)CCS [HSCH2 CH2 COOH, 3-mercaptopropionic acid]
inhibition in vivo at 20 mg/kg ([1]; Rattus norvegicus, im, rats, kaolin oedema, intramuscularly, dose 20.00 mg/kg, n = 10/dose group, read-out: Inhibition in % of the controls): 8.5%

COc1ccc2c(c1)c(CC(=O)O)c(C)n2C(=O)c1ccc(Cl)cc1 [Indometacin]
ED50 ([12]; po): 2.9 µmol/kg
selectivity ratio ([3]; po, Therapeutic range ED50 ulcer / ED50 kaolin oedema, rats): 3.81
selectivity ratio [3, 15]: 23.4
TD50 ([5]; rats, oral, read-out: Stomach ulcer ED50): 11.1 µmol/kg
LD50 ([11]; po): 68 µmol/kg

CCCCC1C(=O)N(c2ccccc2)N(c2ccccc2)C1=O [Phenylbutazone]
ED50 ([12]; rats, oral): 122 µmol/kg
TD50 ([5]; po): 182 µmol/kg

CC(C)CSCCC(=O)SCC(C)C [S-Isobutyl 3-isobutylthiopropionothioate]
inhibition in vivo at 50 mg/kg [1, 13]: 77.2%

CC(C)CSC(=O)CC[S+]([O-])CC(C)C (centres unmarked) [S-isobutyl 3-isobutylsulphinylpropionothioate]
inhibition in vivo at 12.5 mg/kg [1, 13]: 17.9%

CCC(C)SC(=O)CC[S+]([O-])C(C)CC (centres unmarked) [S-sec.-Butyl 3-sec.-butylsulphinylpropionothioate]
inhibition in vivo at 100 mg/kg [1, 13]: 90.5%

CCC(C)SC(=O)CCS(=O)(=O)C(C)CC (centres unmarked) [S-sec.-Butyl 3-sec.-butylsulphonylpropionothioate]
inhibition in vivo at 12.5 mg/kg [1, 13]: 33%

CCC(C)SCCC(=O)SC(C)CC (centres unmarked) [S-sec.-Butyl 3-sec.-butylthiopropionothioate]
inhibition in vivo at 50 mg/kg [1, 13]: 72%
